Source: patent US20210401776A1, “METHOD OF TREATING […] SYNDROMES USING FENFLURAMINE ENANTIOMERS” (ZOGENIX INTERNATIONAL LIMITED, priority 2018, published 2021)
Entries after “also recorded” stand apart in the source; their conditions may differ.

What was measured:
[1] = test system: homozygous scn1Lab−/− mutants; assay: zebrafish locomotor assay (total distance in large movements, lardist); type: in vivo, zebrafish (Danio rerio); conditions: scn1Lab−/− mutants; for reduction in seizure behavior: fixed concentration, FIG. 3
Description: (Baraban et al, 2013). Additional phenotypes of these mutants include: abnormal optokinetic response (OKR; 5 dpf); darkened pigmentation; death by 14 dpf; spontaneous seizure-like activity; abnormal (forebrain electrographic activity (3-7 dpf); seizure activity; lower levels of serotonin in scn1lab^−/− head homogenates at 7 dpf; zebrafish express orthologs of human serotonin (5HT) receptor subtypes at 5 dpf; nighttime hyperactivity (5 dpf); in open field-increased thigmotaxis. decreased movement (at 5 dpf); no differences in GABAergic neurons compared to wild type (5 dpf); 5-HT2a (hitr2aa/b) and S-HT2c; (htr2c11) orthologs expressed in larval heads in wild-type and scn1lab−/− mutants and in adult wild-type brains.
To assay the locomotor activity of homozygous scn1Lab−/− mutants and control WT scn1Lab+/+, zebrafish larvae were placed one larva per well in a 96-well plate in 100 μL of embryo medium from 4 to 8 days post-fertilization (dpf). Each day the larvae are tracked in an automated tracking device (ZebraBox™ apparatus; Viewpoint, Lyon, France) for 10 min after 30 min habituation (100-second integration interval). All recordings were performed at the same time during daytime period. The total distance in large movements was recorded and quantified using ZebraLab™ software (Viewpoint, Lyon, France). Data was pooled together from at least three independent experiments with at least 24 larvae per condition.
Scn1Lab^−/− mutants and WT scn1Lab+/+ larvae are arrayed in the same plate and treated at 6 days post fertilization (dpf) with the test compounds (25 μM), or VHC in individual wells of a 96-well plate. After incubation at 28° C. on a 14/10 hour light/dark cycle and 30-min chamber habituation 6 and 7 dpf larvae are tracked for locomotor activity for 10 min (100-second integration interval) under dark conditions. An incubation time of 1.5 hours is further referred to as short treatment (6 dpf). Furthermore, these larvae are analyzed after more than 22 hours incubation (7 dpf), i.e. long treatment. The total locomotor activity is quantified using the parameter lardist and plotted in cm. Data for each compound is pooled together from multiple independent experiments with at least 9 larvae per treatment condition.

[2] = test system: homozygous scn1Lab−/− mutants; assay: epileptiform activity, open-field recordings in larval forebrain (LFP assay); type: in vivo, zebrafish (Danio rerio); conditions: for LFP Assay: Table 1, 25, 59 and 100 μM, oral via embryo medium
dizocilpine-treated mice [3] = assay: step-through passive avoidance, dizocilpine-induced amnesia model; type: in vivo, Male Swiss OF-1 mice
dizocilpine-treated mice [4] = assay: spontaneous alternation in the Y-maze, dizocilpine-induced amnesia model; type: in vivo, Male Swiss OF-1 mice

CC(N)Cc1cccc(C(F)(F)F)c1 (single isomer, unassigned; (+)) [(+)-Norfenfluramine]
antiseizure activity in the zebrafish locomotor assay [1]: more efficacious than (−)-norfenfluramine
reduction in seizure behavior [1]: 80%
LFP Assay [2]: Less effective than (+)-FFA;

CC(N)Cc1cccc(C(F)(F)F)c1 (single isomer, unassigned; (-)) [(−)-Norfenfluramine]
reduction in seizure behavior [1]: 45%
anti-epileptiform activity (frequency and cumulative duration of epileptiform events over 10 minutes) ([2]; 50 micromolar, FIGS. 4 and 5): less efficacious than (+)- and (−)-fenfluramine; also recorded: comparable
LFP Assay [2]: Inactive

Cl.O=C(OCCN1CCOCC1)C1(c2ccccc2)CCCCC1 [PRE-084, 2-(4-Morpholinethyl)-1-phenylcyclohexanecarboxylate hydrochloride]
PP (%) (dizocilpine-treated mice [3]; Table 2 StepThrough/Passive Avoidance, drug alone 0.1 mg/kg IP): 4.9 ± 9.9%
PP (%) (dizocilpine-treated mice [3]; Table 2 StepThrough/Passive Avoidance, drug alone 0.3 mg/kg IP): 34.6 ± 10.5 ^3%
PP (%) (dizocilpine-treated mice [3]; Table 3 StepThrough/PassiveAvoidance, drug alone 0.1 mg/kg IP): 7.6 ± 12.4%
PP (%) (dizocilpine-treated mice [3]; Table 3 StepThrough/PassiveAvoidance, drug alone 0.3 mg/kg IP): 25.2 ± 9.8 ^3%
PP (%) (dizocilpine-treated mice [3]; Table 4 StepThrough/PassiveAvoidance, drug alone 0.1 mg/kg IP): 8.8 ± 11.0%
PP (%) (dizocilpine-treated mice [3]; Table 4 StepThrough/PassiveAvoidance, drug alone 0.3 mg/kg IP): 38.9 ± 10.4 ^3%
PP (%) (dizocilpine-treated mice [4]; Table 2 Y-Maze, drug alone 0.1 mg/kg IP): 6.6 ± 12.8%
PP (%) (dizocilpine-treated mice [4]; Table 2 Y-Maze, drug alone 0.3 mg/kg IP): 40.5 ± 9.2 ^1%
PP (%) (dizocilpine-treated mice [4]; Table 3 Y-Maze, drug alone 0.1 mg/kg IP): 15.4 ± 10.9%
PP (%) (dizocilpine-treated mice [4]; Table 3 Y-Maze, drug alone 0.3 mg/kg IP): 32.6 ± 8.9 ^1%
PP (%) (dizocilpine-treated mice [4]; Table 4 Y Maze, drug alone 0.1 mg/kg IP): 17.2 ± 13.8%
PP (%) (dizocilpine-treated mice [4]; Table 4 Y Maze, drug alone 0.3 mg/kg IP): 27.0 ± 9.5 ^1%

Dehydroepiandrosterone sulfate [DHEAS]
PP (%) (dizocilpine-treated mice [3]; Table 5 STPA, DHEAS alone 5 mg/kg sc): 19.1 ± 10.7%
PP (%) (dizocilpine-treated mice [3]; Table 5 STPA, DHEAS alone 10 mg/kg sc): 47.2 ± 12.8%
PP (%) (dizocilpine-treated mice [3]; Table 5 STPA, DHEAS alone 20 mg/kg sc): 40.3 ± 13.3^4%
PP (%) (dizocilpine-treated mice [4]; Table 5 YMT, DHEAS alone 5 mg/kg sc): 18.4 ± 9.7%
PP (%) (dizocilpine-treated mice [4]; Table 5 YMT, DHEAS alone 10 mg/kg sc): 29.8 ± 7.4%
PP (%) (dizocilpine-treated mice [4]; Table 5 YMT, DHEAS alone 20 mg/kg sc): 57.9 ± 11.0^1%

pregnenolone sulfate [PREGS]
PP (%) (dizocilpine-treated mice [3]; Table 6 STPA, PREGS alone 5 mg/kg sc): 4.4 ± 16.3%
PP (%) (dizocilpine-treated mice [3]; Table 6 STPA, PREGS alone 10 mg/kg sc): 21.0 ± 14.6%
PP (%) (dizocilpine-treated mice [3]; Table 6 STPA, PREGS alone 20 mg/kg sc): 26.0 ± 19.1 ^4%
PP (%) (dizocilpine-treated mice [4]; Table 6 YMT, PREGS alone 5 mg/kg sc): 3.5 ± 17.6%
PP (%) (dizocilpine-treated mice [4]; Table 6 YMT, PREGS alone 10 mg/kg sc): 52.4 ± 12.2%
PP (%) (dizocilpine-treated mice [4]; Table 6 YMT, PREGS alone 20 mg/kg sc): 72.1 ± 12.4 ^1%
